From patent publication US20160151337A1, “ANNELATED PYRROLES AND THEIR USE AS CRAC INHIBITORS” (Grünenthal GmbH, priority 2013, published 2016)

Experiments:
[1] = test system: Interleukin-2 (IL-2) production/release in Jurkat T cells; experiment: Jurkat IL-2 Production Assay (PHA-stimulated, IL-2 AlphaLisa); format: cell-based; settings: Homo sapiens, PHA 15 μg/ml, 22 h, inhibition of IL-2 production
Summary of the method: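 Jurkat E6-1 cells (5*10^5/well, DMEM/F12 with 10% FCS) pretreated 30 min with compound, then stimulated 22 h with 15 μg/ml PHA at 37 °C. IC50 from 8-point 1:3.16 dilution starting at 10 μM.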

CRAC channel = molecular target: T1, CRAC channel (Homo sapiens, UniProt Q96D31); experiment: HEK Calcium Influx Assay (FLIPR), inhibition of store-operated Ca2+ entry after thapsigargin store depletion; format: cell-based; settings: 10 μM compound, HEK293 cells, read-out: % inhib. [@ 10 μM] FLIPR
T1 construct: endogenous in cells; host or cells: HEK293 (ECACC), untransfected
Summary of the method: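 HEK293 cells loaded with Calcium-4 dye in Ca2+-free HBS (pH 7.4), stores depleted with 2 μM thapsigargin for 10 min (100 μM EGTA); after 3 mM CaCl2 re-addition and 15 min steady-state, compounds added and FLIPR signal averaged 9.5–10 min post-dose. IC50 from 8-point 1:3.16 dilutions from 10 μM, normalised to DMSO and non-depleted wells.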

T1 sequence (Q96D31 whole entry): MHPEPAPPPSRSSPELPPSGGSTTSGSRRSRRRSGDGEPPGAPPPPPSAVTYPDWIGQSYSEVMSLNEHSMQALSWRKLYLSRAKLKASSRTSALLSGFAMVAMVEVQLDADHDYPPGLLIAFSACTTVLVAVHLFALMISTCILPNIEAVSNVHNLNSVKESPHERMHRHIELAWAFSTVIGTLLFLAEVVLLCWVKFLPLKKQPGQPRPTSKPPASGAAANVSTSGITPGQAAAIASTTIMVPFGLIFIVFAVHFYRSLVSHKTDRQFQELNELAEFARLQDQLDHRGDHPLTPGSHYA

SMILES | IC50 [1] [µM] | inhibition at 10 µM (CRAC channel) [%]
Cn1nc(C2(C(F)(F)F)CC2)cc1N1CCc2[nH]c(-c3c(F)cccc3F)cc2C1 [Example 123, 2-(2,6-Difluoro-phenyl)-5-[2-methyl-5-[1-(trifluoromethyl)-cyclopropyl]-2H-pyrazol-3-yl]-4,5,6,7-tetrahydro-1H-pyrrolo[3,2-c]pyridine] | 0.5 to 1 | > 70
Cc1cc(C2CC2)ncc1N1CCc2[nH]c(-c3c(F)cccc3F)cc2C1 [Example 75, 5-(6-Cyclopropyl-4-methyl-pyridin-3-yl)-2-(2,6-difluoro-phenyl)-4,5,6,7-tetrahydro-1H-pyrrolo[3,2-c]pyridine] | 1 to 5 | > 70
Cc1cc(S(C)(=O)=O)ncc1N1CCc2[nH]c(-c3ccc(F)cc3F)cc2C1 [Example 78, 2-(2,4-Difluoro-phenyl)-5-(4-methyl-6-methylsulfonyl-pyridin-3-yl)-4,5,6,7-tetrahydro-1H-pyrrolo[3,2-c]pyridine] | 0.5 to 1 | > 70
Cc1sc(-c2cccnc2)nc1N1CCc2[nH]c(-c3c(F)cccc3F)cc2C1 [Example 2, 4-[2-(2,6-Difluoro-phenyl)-4,5,6,7-tetrahydro-1H-pyrrolo[3,2-c]pyridin-5-yl]-5-methyl-2-pyridin-3-yl-thiazole] | < 0.5 | > 70
Cc1cc(Cl)ncc1N1CCc2[nH]c(-c3c(F)cccc3F)cc2C1 [Example 4, 5-(6-Chloro-4-methyl-pyridin-3-yl)-2-(2,6-difluoro-phenyl)-4,5,6,7-tetrahydro-1H-pyrrolo[3,2-c]pyridine] | < 0.5 | > 70
